{"source": "patent US20060014804A1", "about": "“Cyanoguanidine prodrugs” (Leo Pharma A/S, priority 2002, published 2006)", "origin": "cited, not measured here", "key": {"[1]": {"test_system": "human lung and breast cancer cell lines"}, "[2]": {"test_system": "human lung cancer tumour xenograft", "conditions": "nude mice"}, "human tumour cells [3]": {"test_system": "human tumour cells", "conditions": "compared with daunorubicin and paclitaxel"}, "[4]": {"test_system": "normal human endothelial cells"}, "human tumour cells [5]": {"test_system": "human tumour cells", "conditions": "nude mice transplanted with human tumour cells, also paclitaxel-resistant tumour cells"}}, "data": [{"smiles": "N#CNC(=Nc1ccncc1)NCCCCCCOc1ccc(Cl)cc1", "note": "[N-(6-(4-chlorophenoxy)hexyl)-N′-cyano-N″-(4-pyridyl)guanidine]", "values": [{"measurement": "antiproliferative activity in vitro", "setting": "[1]", "value": "high antiproliferative activity in vitro"}, {"measurement": "antitumour activity in the nude mouse model", "setting": "[2]", "value": "potent antitumour activity"}, {"measurement": "potency in vitro", "setting": "human tumour cells [3]", "value": "comparable to that of the reference cytostatic agents daunorubicin and paclitaxel"}, {"measurement": "antiproliferative activity on normal human endothelial cells", "setting": "[4]", "value": "considerably less antiproliferative activity"}, {"measurement": "antitumour activity in vivo", "setting": "human tumour cells [5]", "value": "substantial antitumour activity"}]}]}
